Assay results: article PMC12627933, “A First-In-Human Study of the SUMOylation Inhibitor Subasumstat in Patients with Advanced/Metastatic Solid Tumors or Relapsed/Refractory Hematologic Malignancies” (Cancer Research Communications, 2025)
“Also recorded” adds a separate entry of the source.

How the values were obtained:
[1] = test system: advanced/metastatic solid tumors and relapsed/refractory hematologic malignancies; test: Clinical activity (RECIST v1.1 / Lugano criteria); assay type: in vivo, human; details: for DCR: 95% CI; for Patients with best response of SD: 90 mg twice weekly
Method: Disease response and progression were assessed for up to 48 months using CT and/or MRI scans with intravenous contrast and ^18fluorodeoxyglucose-PET imaging according to RECIST v1.1 criteria for solid tumors or Lugano criteria for lymphoma response ([21]).
It was anticipated that approximately 70 DLT-evaluable patients would be enrolled for dose escalation. The safety analysis set included all patients who received at least one dose, even if incomplete, of subasumstat. The tumor response–evaluable set included patients who received at least one dose of subasumstat, had sites of measurable disease at baseline and one post-baseline disease assessment, or discontinued treatment because of symptomatic deterioration or death prior to post-baseline evaluation. The overall response rate (ORR) was defined as the proportion of patients who achieved complete response and partial response (PR) during the study. The disease control rate (DCR) was defined as the proportion of patients who achieved […] as per RECIST v1.1 for solid tumors or Lugano classification for lymphomas. Both ORR and DCR were estimated with two-sided 95% exact binomial confidence intervals (CI). Progression-free survival was summarized descriptively using the Kaplan–Meier method.

[2] = Dose-limiting toxicities in cycle 1 and determination of MTD/RP2D (phase I dose escalation); assay type: in vivo; details: for n with DLTs during cycle 1: N = 6
Method: This study comprised two parts: a phase I dose escalation and a phase II dose expansion (Fig. 1). In the dose-escalation phase, patients were enrolled to receive subasumstat intravenously as a 1-hour (±10 minutes) infusion on days 1, 4, 8, and 11 of a 21-day cycle (biweekly schedule). […] Dose escalation was based on cohort with an adaptive design using Bayesian logistic regression modeling with overdose control. The starting dose of subasumstat was based on Good Laboratory Practice animal toxicity studies and supported by the estimation of a minimum anticipated biologically effective level. A detailed description of dose-limiting toxicities (DLT) is presented in the Supplementary Methods.
The occurrence of DLTs was assessed during cycle 1 (DLTs are described in the Supplementary Methods). Treatment-emergent adverse events (TEAE) were graded according to NCI Common Terminology Criteria for Adverse Events version 5.0, except for cytokine release syndrome (CRS), which was graded according to the American Society for Transplantation and Cellular Therapy Consensus Grading for CRS ([20]).
It was anticipated that approximately 70 DLT-evaluable patients would be enrolled for dose escalation. The safety analysis set included all patients who received at least one dose, even if incomplete, of subasumstat. […] The overall response rate (ORR) was defined as the proportion of patients who achieved complete response and partial response (PR) during the study. The disease control rate (DCR) was defined as the proportion of patients who achieved […] as per RECIST v1.1 for solid tumors or Lugano classification for lymphomas. […] Progression-free survival was summarized descriptively using the Kaplan–Meier method.
17. History of allogeneic tissue or solid organ transplant.
18. Second malignancy within the previous 3 years, except treated basal cell or localized squamous skin carcinomas, localized prostate cancer, cervical carcinoma in situ, resected colorectal adenomatous polyps, breast cancer in situ, or other malignancy for which the patient is not on active anticancer therapy.
19. Female patients who are lactating and breastfeeding or have a positive serum pregnancy test during the screening period or a positive urine pregnancy test on day 1 before first dose of study drug.
Definition of dose-limiting toxicities (DLTs) for phase I only
DLTs were defined as any AEs occurring in cycle 1 (unless considered unrelated to the study drug) with the following characteristics:
2. Nonfebrile grade 4 neutropenia (absolute neutrophil count [ANC] <0.5 ×
If myeloid growth factors are used, the event will be considered as DLT irrespective of the duration. […]
temperature of ≥38°C for ≥1 hour.
4. Grade 4 thrombocytopenia lasting ≥7 consecutive days. A platelet count <10
5. Grade 3 thrombocytopenia lasting longer than 14 days or accompanied by grade 2 bleeding or requiring transfusion.
6. Delay in the initiation of cycle 2 by ≥14 days due to a lack of adequate recovery of treatment-related hematological or nonhematologic toxicities.
7. Grade ≥3 nonhematologic toxicity with the following exceptions:
• Grade 3 arthralgia/myalgia that responds to nonsteroidal anti-inflammatory […]
• Grade 3 fatigue lasting fewer than 7 days.
• Grade 3 endocrine disorder that is managed with or without therapy and the patient is asymptomatic.
• Grade 3 or 4 inflammatory reaction attributed to a local antitumor […]
• Grade 3 infusion-related actions that resolves within 6 hours with appropriate clinical management.
• Grade 3 cytokine release syndrome that resolves to grade ≤1 in less than 7 days without end-organ damage.
• Asymptomatic laboratory changes (other than renal and hepatic laboratory values) that can be successfully supplemented (reversion of grade 4

[3] = phase II NSCLC expansion cohort
[4] = phase II cervical cancer expansion cohort

## Cc1sc(C(=O)c2cncnc2N[C@@H]2C[C@H](COS(N)(=O)=O)[C@@H](O)C2)cc1[C@@H]1NCCc2ccc(Cl)cc21 [subasumstat]
[1]; 99 response-evaluable patients, both phases, 40, 90 and 120 mg twice weekly
  Patients with confirmed PR: three
[1]; overall
  Patients with confirmed PR: 3%
[1]; overall, 26 patients
  Best response of SD: 26.3%
[1]; overall, n = 29/99, 20.57–39.29
  DCR: 29.3%
[1]; phase I, n = 21/75, 18.24–39.56
  DCR: 28%
[1]; [3]
  Median progression-free survival: 6.06 months
  Patients with best response of SD: four of seven
[1]; [4]
  Median progression-free survival: 3.78 months
  Patients with best response of SD: two of three
[1]; phase II, n = 8/24, 15.63–55.32
  DCR: 33%
[2]; 60 mg BIW
  n with DLTs during cycle 1: 1
[2]; 60 mg BIW, subasumstat reduced to 40 mg BIW
  Description of DLT: Transient grade 3 ALT/AST
[2]; 90 mg BIW
  n with DLTs during cycle 1: 1
[2]; 90 mg BIW, study treatment discontinued
  Description of DLT: Grade 3 pneumonitis
[2]; 120 mg BIW
  n with DLTs during cycle 1: 2
[2]; 120 mg BIW, n = 1 each
  Description of DLT: Grade 3 stomatitis; also recorded: Grade 3 cognitive disorder
[2]; across a range of pharmacodynamic measures
  Biologically / pharmacodynamically active dose: ≥ 60 mg
[2]; phase I, 74 of 84 DLT-evaluable, all in twice weekly cohorts
  Patients reporting DLTs: four
[2]; twice weekly (days 1, 4, 8, 11 of 21-day cycle), intravenous
  MTD: 120 mg
[2]; twice weekly, intravenous
  Recommended phase II dose (RP2D): 90 mg
